Here are results for 32 compounds from ChEMBL document CHEMBL1133238, “Structure-activity relationships of neuropeptide Y Y1 receptor antagonists related to BIBP 3226” (Bioorg Med Chem Lett, 2000).

Bounds are passed on as bounds.

Usually IC50 stands for the concentration needed to halve the response being measured.

The target in experiment [1] is T1, Neuropeptide Y receptor type 1 (Homo sapiens, UniProt P25929).
T1 sequence (P25929 whole entry): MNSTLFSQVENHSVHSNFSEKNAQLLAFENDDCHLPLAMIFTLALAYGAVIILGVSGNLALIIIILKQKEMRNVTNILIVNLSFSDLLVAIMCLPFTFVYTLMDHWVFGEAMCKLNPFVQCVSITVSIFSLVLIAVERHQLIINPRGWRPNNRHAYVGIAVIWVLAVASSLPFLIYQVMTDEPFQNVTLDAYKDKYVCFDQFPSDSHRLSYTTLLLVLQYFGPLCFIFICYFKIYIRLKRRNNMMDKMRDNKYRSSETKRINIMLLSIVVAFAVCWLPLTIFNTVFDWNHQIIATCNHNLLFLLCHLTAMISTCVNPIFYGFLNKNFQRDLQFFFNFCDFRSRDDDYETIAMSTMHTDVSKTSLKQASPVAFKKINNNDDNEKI
Kind of experiment: NPY Y1-antagonistic activity in HEL cells by measuring the inhibition of porcine NPY (10 nM) stimulated increase in the intracellular [Ca2+] concentration in a FURA-assay. It counts as functional, cell-based.

In experiment [2] the target is T1, Neuropeptide Y receptor type 1. Kind of experiment: Inhibition of binding of [3H]propionyl-NPY (1 nM) to Neuropeptide Y receptor type 1 in SK-N-MC cells. It is filed as cell-based.
Experiment [3] deals with T2, Neuropeptide Y receptor type 5 (Homo sapiens, UniProt Q15761).
T2 sequence (Q15761 whole entry): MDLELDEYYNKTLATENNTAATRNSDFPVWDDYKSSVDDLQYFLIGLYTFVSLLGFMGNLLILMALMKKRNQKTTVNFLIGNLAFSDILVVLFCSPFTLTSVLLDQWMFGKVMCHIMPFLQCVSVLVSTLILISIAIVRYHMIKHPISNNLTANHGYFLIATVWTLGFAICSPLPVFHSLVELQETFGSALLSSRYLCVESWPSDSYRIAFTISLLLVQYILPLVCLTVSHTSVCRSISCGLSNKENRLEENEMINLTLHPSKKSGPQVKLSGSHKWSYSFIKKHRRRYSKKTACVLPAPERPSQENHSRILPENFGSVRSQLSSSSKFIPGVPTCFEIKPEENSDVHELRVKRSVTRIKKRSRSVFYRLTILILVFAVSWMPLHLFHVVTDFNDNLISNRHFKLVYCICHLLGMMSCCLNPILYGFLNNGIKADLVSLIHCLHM
In words: Inhibition of binding of [3H]propionyl-NPY (1 nM) to Neuropeptide Y receptor type 5 in HEC-1-B cells. It is filed as cell-based.

The target of experiment [4] is T3, Neuropeptide Y receptor type 2 (Homo sapiens, UniProt P49146).
T3 sequence (P49146 whole entry): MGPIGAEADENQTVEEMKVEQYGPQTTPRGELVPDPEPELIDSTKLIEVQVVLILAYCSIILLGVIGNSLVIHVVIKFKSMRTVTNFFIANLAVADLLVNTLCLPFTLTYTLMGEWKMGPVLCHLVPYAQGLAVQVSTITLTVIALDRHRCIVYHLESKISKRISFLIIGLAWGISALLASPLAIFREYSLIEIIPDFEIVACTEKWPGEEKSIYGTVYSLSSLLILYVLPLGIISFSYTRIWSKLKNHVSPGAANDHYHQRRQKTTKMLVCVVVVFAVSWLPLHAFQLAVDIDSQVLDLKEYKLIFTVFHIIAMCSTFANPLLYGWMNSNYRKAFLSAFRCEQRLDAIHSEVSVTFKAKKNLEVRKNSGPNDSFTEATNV
Kind of experiment: Inhibition of binding of [3H]propionyl-NPY (1 nM) to Neuropeptide Y receptor type 2 in SMS-KAN cell membranes.

The target in experiment [5] is Neuropeptide Y receptor type 1 (Homo sapiens) (UniProt P25929). Kind of experiment: NPY Y1-antagonistic activity in HEL cells by measuring the inhibition of porcine NPY (10 nM) stimulated increase in the intracellular [Ca2+] concentration in a FURA-assay;Inactive, less than 20% inhibition at […].

With `N=C(N)NCCCC(NC(=O)C(c1ccccc1)c1ccccc1)C(=O)NCc1ccccc1` (configuration not stated), the IC50 in experiment [1] (read-out: IC50) came out at 0.11 µM. Take `N=C(NCCCc1ccccc1)NCCCC(NC(=O)Cc1ccc(-c2ccccc2)cc1)C(=O)N1CCCc2cc(O)ccc2C1` (configuration not stated): the IC50 is 22 µM in experiment [2], 11.9 µM in experiment [1] (read-out: IC50), 0.77 µM in experiment [3] and 78 µM in experiment [4]. As to `N=C(N)NCCCC(NC(=O)Cc1ccc(-c2ccccc2)cc1)C(=O)N[C@H]1CCc2ccccc21` (some centres not stated), in experiment [1] (hel), the IC50 entry is given as “Not Active”.

For `N=C(N)NCCCC(NC(=O)C(c1ccccc1)c1ccccc1)C(=O)N[C@@H]1CCc2ccccc21` (some centres not stated), the half-inhibitory concentration (IC50) in experiment [1] (read-out: IC50) was 21 µM. Still for that read-out and setting: as for `N=C(N)NCCCC(NC(=O)C(c1ccccc1)c1ccccc1)C(=O)N[C@@H](C(N)=O)c1ccc(O)cc1` (some centres not stated), the figure is 8.1 µM; as for `N=C(N)NCCCC(NC(=O)C(c1ccccc1)c1ccccc1)C(=O)N[C@H]1CCc2ccccc21` (some centres not stated), 1.4 µM.

For the compound `N=C(NCCCc1ccccc1)NCCCC(NC(=O)Cc1ccc(-c2ccccc2)cc1)C(=O)N1CCCc2ccccc2C1` (configuration not stated), the 50% inhibitory concentration (IC50) entry in experiment [1] (hel) is listed as “Not Active”.

For `N=C(N)NCCCC(NC(=O)C(c1ccc(Cl)cc1)c1ccc(Cl)cc1)C(=O)N1CCCc2ccccc2C1` (configuration not stated), the IC50 in experiment [1] (read-out: IC50) worked out at 1.1 µM.

Turning to `N=C(N)NCCCC(NC(=O)C(c1ccccc1)(c1ccccc1)c1ccccc1)C(=O)NCc1ccccc1` (configuration not stated), the IC50 entry in experiment [5] was “Not Active”. Consider `N=C(N)NCCCC(NC(=O)Cc1ccc(-c2ccccc2)cc1)C(=O)NCc1ccccc1` (configuration not stated), for which, in experiment [1] (read-out: IC50), the IC50 was determined as 21.8 µM.

`N=C(N)NCCCC(NC(=O)C(c1ccccc1)c1ccccc1)C(=O)NCCc1ccccn1` (configuration not stated): the IC50 in experiment [1] (read-out: IC50) is 11.5 µM.

As for `N=C(N)NCCCC(NC(=O)C(c1ccccc1)c1ccc(Cl)cc1)C(=O)NCc1ccccc1` (configuration not stated), the half-inhibitory concentration (IC50) turned out to be 0.17 µM in experiment [2], 0.081 µM in experiment [1] (read-out: IC50), 2.6 µM in experiment [3] and 97 µM in experiment [4]. The like results for `C[C@@H](NC(=O)C(CCCNC(=N)N)NC(=O)C(c1ccccc1)c1ccccc1)c1ccccc1` (some centres not stated) were, in that order, 0.15 µM, 0.2 µM, 48 µM and 177 µM. With `N=C(N)NCCCC(NC(=O)C(c1ccccc1)c1ccc(Cl)cc1)C(=O)N[C@H]1CCc2ccccc21` (some centres not stated), the IC50 in experiment [2] was 5.3 µM; in experiment [1] (read-out: IC50), 3 µM; in experiment [3] it was 11.9 µM; in experiment [4], 59 µM. As to `N=C(N)NCCCC(NC(=O)C(c1ccc(Cl)cc1)c1ccc(Cl)cc1)C(=O)NCc1ccccc1` (configuration not stated), the IC50 in experiment [1] (read-out: IC50) was determined as 0.1 µM. `N=C(N)NCCCC(NC(=O)C(c1ccccc1)c1ccccc1)C(=O)N[C@H](CO)c1ccccc1` (some centres not stated): the IC50 in experiment [2] was found to be 0.184 µM; in experiment [1] (read-out: IC50), 0.9 µM; in experiment [3], 68 µM; in experiment [4], 540 µM. For `N=C(N)NCCCC(NC(=O)Cc1ccc(-c2ccccc2)cc1)C(=O)N1CCCc2ccccc2C1` (configuration not stated), in experiment [1] (read-out: IC50), the IC50 came to 76 µM. In the case of `N=C(N)NCCCC(NC(=O)C(c1ccccc1)c1ccccc1)C(=O)N[C@@H](C(N)=O)c1ccccc1` (some centres not stated), the IC50 in experiment [2] was 2.4 µM; in experiment [1] (read-out: IC50), 4.6 µM; in experiment [3], 163 µM; in experiment [4] it was greater than 400 µM. Taken in the same sequence, the figures for `N=C(N)NCCCC(NC(=O)C(c1ccccc1)c1ccccc1)C(=O)N1CCCc2cc(O)ccc2C1` (configuration not stated) were 0.67 µM, 0.28 µM, 25 µM and 247 µM.

`N=C(N)NCCCC(NC(=O)C(c1ccccc1)(c1ccccc1)c1ccccc1)C(=O)N1CCCc2ccccc2C1` (configuration not stated): the IC50 in experiment [1] (read-out: IC50) was 51 µM.

For `N=C(N)NCCCC(NC(=O)C(c1ccccc1)c1ccccc1)C(=O)N[C@@H]1C[C@H](CO)c2ccccc21` (some centres not stated), the IC50 result in experiment [5] is recorded as “Not Active”. In the case of `C[C@H](NC(=O)C(CCCNC(=N)N)NC(=O)C(c1ccccc1)c1ccccc1)c1ccccc1` (some centres not stated), the IC50 in experiment [1] (read-out: IC50) is 2.5 µM. As for `N=C(N)NCCCC(NC(=O)C(c1ccc(Cl)cc1)c1ccc(Cl)cc1)C(=O)N[C@H]1CCc2ccccc21` (some centres not stated), in experiment [1] (read-out: IC50), the IC50 is greater than 10 µM.

Take `N=C(N)NCCCC(NC(=O)C(c1ccccc1)c1ccccc1)C(=O)N[C@H](C(N)=O)c1ccccc1` (some centres not stated): the half-maximal inhibitory concentration (IC50) in experiment [1] (read-out: IC50) worked out at 7.5 µM. Take `N=C(N)NCCCC(NC(=O)C(c1ccccc1)c1ccc(Cl)cc1)C(=O)N1CCCc2ccccc2C1` (configuration not stated): in experiment [1] (read-out: IC50), the IC50 turned out to be 1.1 µM. With `N=C(N)NCCCC(NC(=O)C(c1ccccc1)c1ccccc1)C(=O)NCc1ccccn1` (configuration not stated), in experiment [1] (read-out: IC50), the IC50 was 3.75 µM.

As to `N=C(N)NCCCC(NC(=O)C(c1ccccc1)c1ccccc1)C(=O)N1CCCc2ccccc2C1` (configuration not stated), in experiment [1] (read-out: IC50), the IC50 turned out to be 2.2 µM. With `N=C(N)NCCCC(NC(=O)C(c1ccccc1)c1ccccc1)C(=O)N[C@@H](CO)c1ccccc1` (some centres not stated), the 50% inhibitory concentration (IC50) in experiment [1] (read-out: IC50) is 22.3 µM.

Consider `N=C(N)NCCCC(NC(=O)C(c1ccccc1)c1ccccc1)C(=O)NCc1ccc(O)cc1` (configuration not stated), for which the figures for the IC50 in experiment [3] and in experiment [4] were 80 µM and greater than 100 µM, respectively.

In the case of `CC(NC(=O)C(CCCN=C(N)N)NC(=O)C(c1ccccc1)c1ccccc1)c1ccc(O)cc1` (racemic), the IC50 is 0.019 µM in experiment [2], 0.06 µM in experiment [1] (read-out: IC50), 75 µM in experiment [3] and 575 µM in experiment [4]. In the case of `N=C(N)NCCCC(NC(=O)C(c1ccccc1)c1ccccc1)C(=O)NCC1CCCCN1` (racemic), the 50% inhibitory concentration (IC50) entry in experiment [5] is recorded as “Not Active”. `N=C(N)NCCCC(NC(=O)C(c1ccccc1)c1ccccc1)C(=O)NC1CCc2cc(O)ccc21` (racemic): the IC50 in experiment [1] (read-out: IC50) is 1 µM.
